SMILES strings stand for the structures.

This assay deals with NMNAT2. Kind of assay: NMNAT2-Hibit nano-luciferase activity in stably transfected U87MG cells, various concentrations, 24 hours. To be noted: U87MG cells stably transfected with NMNAT2-Hibit luc plasmid. Type of assay: cell-based. Here is the method: Selected compounds were tested in vitro. U87MG cells were stably transfected with NMNAT2-Hibit luc plasmid. Cells were treated with a test compound at various concentrations for 24 hours. Cells were then collected and assayed for nano-luciferase activity.
As to `Cc1ccc(Cn2cc([C@H]3C[C@@H]3C(=O)NCc3ccco3)c3ccccc32)cc1` (racemic) [BC20293], the “E: compound efficacy for NMNAT2 activation (concentration giving >25% increase in NMNAT2 luciferase activity)” value is listed as “++ (“++” >25% increase in NMNAT2 luciferase activity at >1 μM ≤25 μM.)”. The entry for `Cc1ccc(Cn2cc([C@H]3C[C@@H]3C(=O)NCc3ccc(C)o3)c3ccccc32)cc1` (racemic) [BC20294] is “+ (“+” >25% increase in NMNAT2 luciferase activity at >25 μM.)”. For `Cc1ccc(Cn2cc([C@H]3C[C@@H]3C(=O)NCc3cccc(F)c3)c3ccccc32)cc1` (racemic) [BC20295] the value was “+ (“+” >25% increase in NMNAT2 luciferase activity at >25 μM.)”; for `Cc1ccc(Cn2cc([C@H]3C[C@@H]3C(=O)NCc3ccccc3C)c3ccccc32)cc1` (racemic) [BC20296], “++ (“++” >25% increase in NMNAT2 luciferase activity at >1 μM ≤25 μM.)”; for `Cc1ccc(Cn2cc([C@H]3C[C@@H]3C(=O)NCc3cccc(C)c3)c3ccccc32)cc1` (racemic) [BC20297], “+ (“+” >25% increase in NMNAT2 luciferase activity at >25 μM.)”. `COc1ccccc1CNC(=O)[C@H]1C[C@@H]1c1cn(Cc2ccc(C)cc2)c2ccccc12` (racemic) [BC20298]: the “E: compound efficacy for NMNAT2 activation (concentration giving >25% increase in NMNAT2 luciferase activity)” value is “+ (“+” >25% increase in NMNAT2 luciferase activity at >25 μM.)”.

For the compound `COc1cccc(CNC(=O)[C@H]2C[C@@H]2c2cn(Cc3ccc(C)cc3)c3ccccc23)c1` (racemic) [BC20299], the “E: compound efficacy for NMNAT2 activation (concentration giving >25% increase in NMNAT2 luciferase activity)” value is “+ (“+” >25% increase in NMNAT2 luciferase activity at >25 μM.)”.

For the compound `Cc1ccc(Cn2cc([C@H]3C[C@@H]3C(=O)NCCc3ccccc3)c3ccccc32)cc1` (racemic) [BC20300], the “E: compound efficacy for NMNAT2 activation (concentration giving >25% increase in NMNAT2 luciferase activity)” value was “++ (“++” >25% increase in NMNAT2 luciferase activity at >1 μM ≤25 μM.)”.

For the compound `Cc1ccc(Cn2cc([C@H]3C[C@@H]3C(=O)NCc3cccnc3)c3ccccc32)cc1` (racemic) [BC20301], the “E: compound efficacy for NMNAT2 activation (concentration giving >25% increase in NMNAT2 luciferase activity)” value is “+ (“+” >25% increase in NMNAT2 luciferase activity at >25 μM.)”.

Regarding `Cc1ccc(C)c(Cn2c(C)c([C@H]3C[C@@H]3C(=O)NCc3cccc(F)c3)c3ccccc32)c1` (racemic) [BC20302], the “E: compound efficacy for NMNAT2 activation (concentration giving >25% increase in NMNAT2 luciferase activity)” value was “+ (“+” >25% increase in NMNAT2 luciferase activity at >25 μM.)”.

On to `Cc1cccc(CNC(=O)[C@H]2C[C@@H]2c2c(C)n(Cc3cc(C)ccc3C)c3ccccc23)c1` (racemic) [BC20303], for which the “E: compound efficacy for NMNAT2 activation (concentration giving >25% increase in NMNAT2 luciferase activity)” value is reported as “+ (“+” >25% increase in NMNAT2 luciferase activity at >25 μM.)”. The entry for `Cc1ccc(C)c(Cn2c(C)c([C@H]3C[C@@H]3C(=O)NCc3ccco3)c3ccccc32)c1` (racemic) [BC20323] is “+ (“+” >25% increase in NMNAT2 luciferase activity at >25 μM.)”; for `COc1ccccc1CNC(=O)[C@H]1C[C@@H]1c1c(C)n(Cc2cc(C)ccc2C)c2ccccc12` (racemic) [BC20324] it is “+ (“+” >25% increase in NMNAT2 luciferase activity at >25 μM.)”; for `COc1cccc(CNC(=O)[C@H]2C[C@@H]2c2c(C)n(Cc3cc(C)ccc3C)c3ccccc23)c1` (racemic) [BC20325] it is “+ (“+” >25% increase in NMNAT2 luciferase activity at >25 μM.)”. For `Cc1ccc(C)c(Cn2c(C)c([C@H]3C[C@@H]3C(=O)NCCc3ccccc3)c3ccccc32)c1` (racemic) [BC20326] the value was “++ (“++” >25% increase in NMNAT2 luciferase activity at >1 μM ≤25 μM.)”; for `Cc1ccc(C)c(Cn2cc([C@H]3C[C@@H]3C(=O)NCc3ccco3)c3ccccc32)c1` (racemic) [BC20344], “+ (“+” >25% increase in NMNAT2 luciferase activity at >25 μM.)”.

The record behind these values is patent US20220169632A1, “METHODS AND MATERIALS FOR INCREASING OR MAINTAINING NICOTINAMIDE MONONUCLEOTIDE ADENYLYL TRANSFERASE-2 (NMNAT2) POLYPEPTIDE LEVELS” (University of Pittsburgh - Of the Commonwealth System of …, priority 2019, published 2022).
